According to PubChem BioAssay AID1599 (NINDS Approved Drug Screening Program, 2009):

Test system: C. elegans polyQ-huntingtin mechanosensory neurons, touch response
Assay: restoration of touch response, mutant HTT neurons – whole organism, C. elegans mechanosensory neurons, N-terminal huntingtin (AID 1599)

| SMILES | EC50 [µM] |
| --- | --- |
| CC(C)(C)c1ccc(C(O)CCCN2CCC(C(O)(c3ccccc3)c3ccccc3)CC2)cc1 (stereo unspecified) | 0.9 |
| CN1CCN(C2=Nc3cc(Cl)ccc3Nc3ccccc32)CC1 | 4.4 |
| CC1=C2C(=CO[C@H](C)[C@H]2C)C(=O)C(C(=O)O)=C1O | 40 |
| Clc1ccc(COC(Cn2ccnc2)c2ccc(Cl)cc2Cl)cc1 (stereo unspecified) | 3 |
| COc1ccc(Cl)cc1C(=O)NCCc1ccc(S(=O)(=O)NC(=O)NC2CCCCC2)cc1 | 2.3 |
| CN(C)CCCN1c2ccccc2CCc2ccc(Cl)cc21 | 28 |
| CC1=NN(c2ccccc2)C(=O)C1 | 0.016 |
| OCCN1CCN(CCCN2c3ccccc3Sc3ccc(Cl)cc32)CC1 | 1 |
| Clc1ccc(C(OCCN2CCCCC2)c2ccccc2)cc1 (stereo unspecified) | 28 |
| CC(C)NNC(=O)c1ccncc1 | 16 |
| CCCCNc1ccc(C(=O)OCCN(C)C)cc1 | 5.8 |
| Cc1cc2cc3c(C)cc(=O)oc3c(C)c2o1 | 3.8 |
| CN1CCC(=C2c3ccccc3Sc3ccccc32)CC1 | 24 |
| CCn1cc(C(=O)O)c(=O)c2cc3c(cc21)OCO3 | 2.3 |
| Cc1cc(O)cc(C)c1Cl | 3.3 |
| C[C@@]1(C(=O)O)CC[C@]2(C)CC[C@]3(C)C4=CC=C5C=C(O)C(=O)C=C5[C@]4(C)CC[C@@]3(C)[C@@H]2C1 | 0.4 |
| O=c1c2ccccc2[se]n1-c1ccccc1 | 0.2 |
| CNc1ccc2oc(C[C@@H]3OC4(CC[C@@H]3C)O[C@H](C(C)C(=O)c3ccc[nH]3)[C@H](C)C[C@H]4C)nc2c1C(=O)O (stereo partly specified) | 5.5 |
| C=Cc1c(C)c2cc3[nH]c(cc4nc(cc5nc(cc1[nH]2)C(C)=C5CCC(=O)O)C(CCC(=O)O)=C4C)c(C)c3C=C | 0.005 |
| CNCCC=C1c2ccccc2CCc2ccccc21 | 1.8 |
| CC(=O)OCC1=C(C(=O)O)N2C(=O)[C@@H](NC(=O)CCCC(N)C(=O)O)C2SC1 (stereo partly specified) | 2 |
| COc1ccc2cc(CCC(C)=O)ccc2c1 | 10 |
| O=C1c2ccc(O)c(O)c2C(=O)c2c(O)ccc(O)c21 | 2.8 |
| O=c1oc2ccccc2c(O)c1Cc1c(O)c2ccccc2oc1=O | 4.2 |
| Oc1c(Cl)cc(Cl)c2cccnc12 | 3 |
| C[C@@H]1O[C@@H](O[C@H]2[C@H](Oc3cc(O)c4c(c3)O[C@H](c3ccc(O)cc3)CC4=O)O[C@H](CO)[C@@H](O)[C@@H]2O)[C@H](O)[C@H](O)[C@H]1O | 0.8 |
